Reference: US10463709B2, “Short synthetic peptide for treating diseases and/or conditions related to angiogenesis” (MacKay Memorial Hospital, priority 2015, dated 2019)
Several values for one entry are separate records, joined by “and”; a condition that tells them apart may be missing. Equal values may be shown once. Square brackets hold non-standard residues; d marks the D form. Ends that are not written are not given here.

Legend:
RPMI8226 cells = test: MTT assay, VEGF-induced proliferation of RPMI8226 cells; format: cell-based; settings: for effect on VEGF-induced proliferation of RPMI8226 cells: VEGF 50 ng/ml, 25 μM peptide, 24 hrs, MTT; for biological activity of the analogue relative to the 7-mer (summary statement of the description): summary of Example 1 findings
Method: The multiple myeloma line RPMI8226 was cultivated in complex medium (RPMI1640) supplemented with 10% (vol/vol) heat-inactivated fetal calf serum (Invitrogen), 50 μg/mL penicillin, 50 μg/mL streptomycin, and 2 mM L-glutamine at 37° C. in a 5% CO2 atmosphere. RPMI8226 cells were cultured in serum-free RPMI1640 medium for 24 hrs, and then cells were seeded in 48-well culture plates (3×10^5 cells/well) and continued to culture in 0.5 ml fresh serum-free RPMI1640 medium containing 25 μM peptide for another 24 hrs. The cell viability was determined by the MTT assay. Briefly, 50 μL of MTT stock solution (50 μL) (5 mg MTT dissolved in 1 ml of sterile PBS) was added to each culture well. In addition, 50 μL of the MTT stock solution was added in 500 μL of medium as the negative control. The culture plate was incubated at 37° C. for 4 hours. Aliquots (450 μl) from each sample were taken to a new well of 48-well culture plate, adding 100 μL DMSO, mixing thoroughly using the pipette and reacted at 37° C. for 20 min and read absorbance at 570 nm. These synthesized peptides were then subject to MTT assay, in which vascular endothelial growth factor (VEGF) was used as a stimulant to induce cell proliferation. Results are depicted in FIGS. 1 to 4.

HUVECs [1] = test: VEGF-induced HUVEC proliferation assay; format: cell-based; settings: vs untreated HUVECs
Method: HUVECs (1×10^5 cells per well of 6-well plate) were grown in Medium 200 with Low Serum Growth Supplement (LSGS Kit, supplement contains 1.9% FBS, 3 ng/ml bFGF, 10 μg/ml heparin, 1 μg/ml hydrocortisone, and 10 ng/ml EGF). Culture plates were coated with 2% gelatin. Cells (passages 4-8) were cultured at 37° C. in a humidified atmosphere of 5% CO2. […]
HUVECs (1×10^5 cells per well of 6-well plate) in Medium 200 supplemented with LSGS Kit were allowed to grow onto 6-well plates coated with 2% gelatin for 24 hours at 37° C. in 5% CO2. The culture medium was then replaced with serum free Medium 200 overnight. […] Then, cells were harvested by trypsin-EDTA and counted using a hemocytometer.

HUVECs [2] = test: Endothelial cell capillary-like tube formation assay; format: cell-based; settings: vs untreated HUVECs
Method: To examine the effect of the present synthetic peptide on in vitro angiogenesis, growth factor-reduced matrigel was pipetted into pre-chilled 24-well plates (150 μl matrigel per well) and polymerized for 45 min at 37° C. […] In this experiment, images were captured using a Cannon camera on Zeiss inverted microscope with magnification ×40 and tube length was quantified using Image analysis software (Image-Pro Plus). The control peptide as used in the present invention has the sequence of DLYRVR (SEQ ID NO: 10).

rat aortic ring = test: Rat aortic ring assay (ex vivo microvessel sprouting); parameters: species or system Sprague Dawley rats; settings: beta-FGF induced; peptide 50 μM
Method: Thoracic aortas were removed from euthanized 10-week-old male Sprague Dawley rats, and gently stripped off periaortic fibroadipose tissue. Aortas were sectioned to about 2-mm length rings, which were embedded in Matrigel. To induce angiogenesis, human recombinant bFGF (50 ng/ml) or bFGF plus the peptide (50 μM) was added in Matrigel. Gel (200 μl) containing an aortic ring was polymerized in 12-well plates (37° C. for 30 min) and then incubated with 1 ml of Medium 200 supplemented with 100 units/ml penicillin, and […] streptomycin and 2% FBS at 37 ° C. The cultures were propagated at 37 ° C. in a humidified incubator for up to 7 days. Sprouts were recorded using an inverted microscope platform (Leica DM16000B) with bright-field optics. Each ring was scored by three independent observers on a scale 0-4 depending on the degree of sprouting vessel being observed (0=no sprouting, 4=profuse sprouting). The experiment was repeated in triplicates.

B16-F10 melanoma cells = test: Experimental pulmonary metastasis in mice; format: in vivo, C57BL/6 mice; settings: for effect on number of colonies on the surface of the lung / in vivo metastasis / No. lung colonies: 10 mg/Kg intraperitoneal every 2 days; for No. lung colonies: day 8, n = 5; for Inhibition (%): lung colonies vs vehicle, 10 mg/Kg
Method: 2×10^5 B16-F10 cells were suspended in 100 μl PBS and checked for viability using trypan blue staining (>95%). The B16-F10 cells were then injected into the tail vein of the 6-week-old female C57BL/6 mice; while vehicle (DMSO), the present synthetic peptide or the control peptide (10 mg/kg) were administered by intraperitoneal injections every 2 days after the B16-F10 cell injection. Five mice were used for each group. On day 8 after inoculation of cells, the lungs were removed, and the number of visible colonies on the surface of the lungs were counted using a dissecting microscope.
Metastasis is the foremost cause of death from cancer. In this example, to investigate the efficacy of the present synthetic peptide on the metastasis of cancer cells, B16-F10 cells were injected into the tail vein of a mouse, the animal was then treated with the present synthetic peptide (7-mer or 7-mer DD, 10 mg/Kg) by intraperitoneal injections every 2 days. Upon completion of the experiment, the lungs were then removed and the tumor colonies visible to the eyes were then counted. Results are depicted in FIG. 10.

[3] = tested on: STZ-induced diabetic mice; test: Vascular abnormalities in the retina of diabetic mice; format: in vivo; settings: for Fluorescence Intensity (Fold): leaked FITC-BSA in entire retina, vs vehicle
Method: Diabetic mice were generated by a single intraperitoneal injection of streptozotocin (STZ) (150 mg/kg body weight). STZ was freshly prepared in 0.1 M citrate buffer (pH 4.5). After injection, mice were supplied with 10% sucrose overnight to prevent sudden hypoglycemic shock. After 1 week, mice with non-fasting blood glucose levels >500 mg/dl were defined as diabetic and used for the experiments. DMSO Vehicle or the present synthetic peptide (10 mg/kg; n≥3 per peptide) were administered by intraperitoneal injections twice a day. After treatment for 24 h, mice were intraperitoneal injected with 100 mg/kg of BSA-FITC for further 30 min.
To determine vascular lesions (hemorrhaging areas) in retina, the animals were euthanized by CO2 inhalation, and the eyes were enucleated and fixed by 2% paraformaldehyde for 2 hr and flat-mounted onto glass slides to obtain optical sections by an epifluorescence microscopy. Vascular lesions in the retina was scored in all four retinal quadrants of flat mounts by using a 20× objective. Six microscopic fields were sampled in each quadrant in both the central and peripheral retina, and data were presented as the average number of lesions/retina.
Vascular FITC-BSA leakage was determined by a fluorescence spectrofluorometer based on standard curves of FITC-BSA at excitation and emission wavelengths of 488 and 535 nm, respectively, and then normalized to a non-injected control retina. For this analysis, retinas were dissected from treated and untreated diabetic mice after BSA-FITC injections, and each was solubilized in 300 μL ice-cold PBS.
Diabetic retinopathy is characterized by blood-retinal barrier (BRB) breakdown and neurotoxicity. To evaluate the possible beneficial effect of the present synthetic peptides on diabetic retinopathy, STZ-induced diabetic mice were intraperitoneally injected with 7-mer peptide, DMSO vehicle or the control peptide (SEQ ID NO: 22). The retinal vascular abnormality was then monitored by detecting the extravasation of BSA-fluorescein. Results are depicted in FIG. 11.

[4] = VEGF (10 ng/mL) + 25 μM peptide

## NH2-Asp-Leu-Tyr-Arg-Leu-Arg-Ser-COOH (DLYRLRS; not fully specified (N-terminus, C-terminus); printed as NH2-Asp-Leu-Tyr-Arg-Leu-Arg-Ser-COOH) [7-mer (V→L)]
RPMI8226 cells
  effect on VEGF-induced proliferation of RPMI8226 cells: could sustain 7-mer bioactivity, only partly
  biological activity of the analogue relative to the 7-mer (summary statement of the description): relatively the same bioactivity
HUVECs [1]; [4]
  Cell number (Fold): 1.02 ± 0.049 Fold
HUVECs [2]; [4]
  Tube length (Fold): 1.41 ± 0.37 Fold
Rat aortic ring
  level of sprouting microvessels around the aortic ring: inhibited
B16-F10 melanoma cells
  effect on number of colonies on the surface of the lung / in vivo metastasis: may suppress in vivo metastasis
  No. lung colonies: 75 ± 30.4
  Inhibition (%): 66.8%
[3]
  extravasation of FITC-BSA: may significantly prevent
  Fluorescence Intensity (Fold): 0.33 ± 0.079 Fold

## VEGF [reference compound]
HUVECs [1]; VEGF (10 ng/mL) alone
  Cell number (Fold): 1.62 Fold and 1.62 ± 0.070 Fold
HUVECs [2]; VEGF (10 ng/mL) alone
  Tube length (Fold): 3.43 ± 0.32 Fold

## H-DLYR[dV]RS-OH [7-mer DV]
RPMI8226 cells; 1 to 25 μM, RPMI8226 cells
  dose dependence of inhibitory action on VEGF-induced cell proliferation: dose dependent manner
HUVECs [1]; [4]
  Cell number (Fold): 0.99 ± 0.078 Fold
HUVECs [2]; [4]
  Tube length (Fold): 1.24 ± 0.18 Fold
Rat aortic ring
  level of sprouting microvessels around the aortic ring: inhibited
B16-F10 melanoma cells
  effect on number of colonies on the surface of the lung / in vivo metastasis: may suppress in vivo metastasis
  No. lung colonies: 51 ± 17.0
  Inhibition (%): 77.4%
[3]
  extravasation of FITC-BSA: may significantly prevent
  Fluorescence Intensity (Fold): 0.31 ± 0.072 Fold

## NH2-Asp-Ala-Tyr-Arg-Val-Arg-Ser-COOH (DAYRVRS; not fully specified (N-terminus, C-terminus); printed as NH2-Asp-Ala-Tyr-Arg-Val-Arg-Ser-COOH) [7-mer La]
RPMI8226 cells
  effect on VEGF-induced proliferation of RPMI8226 cells: sustained part of the 7-mer activity

## NH2-Asp-(D-Leu)-Tyr-Arg-Val-(D-Arg)-Ser-COOH (H-D[dL]YRV[dR]S-OH) [7-mer DR2]
RPMI8226 cells
  biological activity of the analogue relative to the 7-mer (summary statement of the description): lose its biological activity

## NH2-Ala-Leu-Tyr-Arg-Val-Arg-Ser-COOH (ALYRVRS; not fully specified (N-terminus, C-terminus); printed as NH2-Ala-Leu-Tyr-Arg-Val-Arg-Ser-COOH) [7-mer Da]
RPMI8226 cells
  effect on VEGF-induced proliferation of RPMI8226 cells: sustained part of the 7-mer activity

## NH2-Leu-Leu-Tyr-Arg-Val-Arg-Ser-COOH (LLYRVRS; not fully specified (N-terminus, C-terminus); printed as NH2-Leu-Leu-Tyr-Arg-Val-Arg-Ser-COOH) [7-mer (D→L)]
RPMI8226 cells
  effect on VEGF-induced proliferation of RPMI8226 cells: could sustain 7-mer bioactivity, only partly
  biological activity of the analogue relative to the 7-mer (summary statement of the description): relatively the same bioactivity

## NH2-Asp-Val-Phe-Arg-Val-Arg-Thr-COOH (DVFRVRT; not fully specified (N-terminus, C-terminus); printed as NH2-Asp-Val-Phe-Arg-Val-Arg-Thr-COOH) [7-mer VFT]
RPMI8226 cells
  effect on VEGF-induced proliferation of RPMI8226 cells: could sustain 7-mer bioactivity, only partly
  biological activity of the analogue relative to the 7-mer (summary statement of the description): relatively the same bioactivity

## H-D[dL]YRVRS-OH [7-mer DL]
RPMI8226 cells
  biological activity of the analogue relative to the 7-mer (summary statement of the description): lose its biological activity

## NH2-Asp-Leu-(D-Tyr)-Arg-Val-Arg-Ser-COOH (H-DL[dY]RVRS-OH) [7-mer DY]
RPMI8226 cells
  biological activity of the analogue relative to the 7-mer (summary statement of the description): lose its biological activity
HUVECs [1]; [4]
  Cell number (Fold): 1.63 ± 0.077 Fold

## NH2-Asp-Leu-Tyr-(D-Arg)-Val-Arg-Ser-COOH (H-DLY[dR]VRS-OH) [7-mer DR]
RPMI8226 cells
  biological activity of the analogue relative to the 7-mer (summary statement of the description): lose its biological activity

## NH2-Val-Leu-Tyr-Arg-Val-Arg-Ser-COOH (VLYRVRS; not fully specified (N-terminus, C-terminus); printed as NH2-Val-Leu-Tyr-Arg-Val-Arg-Ser-COOH) [7-mer (D→V)]
RPMI8226 cells
  effect on VEGF-induced proliferation of RPMI8226 cells: could sustain 7-mer bioactivity, only partly
  biological activity of the analogue relative to the 7-mer (summary statement of the description): relatively the same bioactivity

## NH2-Asp-Leu-Tyr-Arg-Val-Gln-Ser-COOH (DLYRVQS; not fully specified (N-terminus, C-terminus); printed as NH2-Asp-Leu-Tyr-Arg-Val-Gln-Ser-COOH) [7-mer (R2→Q)]
RPMI8226 cells
  effect on VEGF-induced proliferation of RPMI8226 cells: could sustain 7-mer bioactivity, only partly

## NH2-Phe-Leu-Tyr-Arg-Val-Arg-Ser-COOH (FLYRVRS; not fully specified (N-terminus, C-terminus); printed as NH2-Phe-Leu-Tyr-Arg-Val-Arg-Ser-COOH) [7-mer (D→F)]
RPMI8226 cells
  effect on VEGF-induced proliferation of RPMI8226 cells: could sustain 7-mer bioactivity, only partly
  biological activity of the analogue relative to the 7-mer (summary statement of the description): relatively the same bioactivity
